Reference: the NIST ThermoML archive (doi:10.1021/je8009545)

Assay: xn = mol fraction of the nth substance listed
Conditions: Gas; for mass density: Gas pipette; for viscosity: Oscillating disk viscometry

COC [dimethyl ether] + N#N
Conditions | mass density [kg/m3] | viscosity [mPa·s]
298.15 K, 101 kPa, x1 = 0.256 | 1.178 | 0.01483
298.15 K, 101 kPa, x1 = 0.449 | 1.433 | 0.013
298.15 K, 101 kPa, x1 = 0.752 | 1.783 | 0.01063
298.15 K, 101 kPa, x1 = 1 | 1.91 | 0.00922
298.15 K, 262 kPa, x1 = 0.752 | 4.839 | 0.0106
298.15 K, 264 kPa, x1 = 0.449 | 4.075 | 0.013
298.15 K, 296 kPa, x1 = 1 | 6.081 | 0.00918
298.15 K, 305 kPa, x1 = 0.256 | 4.298 | 0.01488
298.15 K, 475 kPa, x1 = 1 | 10.06 | 0.0091
298.15 K, 614 kPa, x1 = 0.752 | 11.78 | 0.0106
298.15 K, 640 kPa, x1 = 0.449 | 9.965 | 0.01303
298.15 K, 683 kPa, x1 = 0.256 | 9.296 | 0.01494
323.15 K, 101 kPa, x1 = 0.228 | 1.08 | 0.01629
323.15 K, 101 kPa, x1 = 0.449 | 1.144 | 0.01402
323.15 K, 101 kPa, x1 = 0.698 | 1.303 | 0.012
323.15 K, 101 kPa, x1 = 1 | 1.652 | 0.00997
323.15 K, 270 kPa, x1 = 0.698 | 4.353 | 0.01201
323.15 K, 295 kPa, x1 = 1 | 5.561 | 0.00996
323.15 K, 321 kPa, x1 = 0.449 | 4.449 | 0.01406
323.15 K, 354 kPa, x1 = 0.228 | 4.544 | 0.01632
323.15 K, 485 kPa, x1 = 0.698 | 7.499 | 0.01201
323.15 K, 486 kPa, x1 = 0.449 | 6.864 | 0.01408
323.15 K, 490 kPa, x1 = 1 | 9.31 | 0.00993
323.15 K, 553 kPa, x1 = 0.228 | 6.768 | 0.01636
323.15 K, 695 kPa, x1 = 0.698 | 11.57 | 0.01206
323.15 K, 714 kPa, x1 = 0.449 | 10.2 | 0.01408
323.15 K, 736 kPa, x1 = 1 | 14.71 | 0.00995
323.15 K, 910 kPa, x1 = 0.228 | 11.15 | 0.01636
323.15 K, 946 kPa, x1 = 0.698 | 15.73 | 0.01208
323.15 K, 976 kPa, x1 = 1 | 22.53 | 0.00994
323.15 K, 990 kPa, x1 = 0.449 | 13.89 | 0.01413
348.15 K, 101 kPa, x1 = 0.313 | 1.11 | 0.01638
348.15 K, 101 kPa, x1 = 0.491 | 1.237 | 0.01463
348.15 K, 101 kPa, x1 = 0.661 | 1.332 | 0.01319
348.15 K, 101 kPa, x1 = 1 | 1.332 | 0.01081
348.15 K, 294 kPa, x1 = 0.313 | 3.552 | 0.01639
348.15 K, 305 kPa, x1 = 1 | 5.17 | 0.01081
348.15 K, 306 kPa, x1 = 0.661 | 4.345 | 0.01319
348.15 K, 325 kPa, x1 = 0.491 | 4.155 | 0.01468
348.15 K, 519 kPa, x1 = 0.661 | 7.453 | 0.01321
348.15 K, 520 kPa, x1 = 0.313 | 6.153 | 0.01644
348.15 K, 525 kPa, x1 = 0.491 | 6.977 | 0.01471
348.15 K, 551 kPa, x1 = 1 | 9.705 | 0.01082
348.15 K, 992 kPa, x1 = 0.661 | 14.43 | 0.01327
348.15 K, 998 kPa, x1 = 0.313 | 11.96 | 0.0165
348.15 K, 1006 kPa, x1 = 1 | 19.03 | 0.01085
348.15 K, 1021 kPa, x1 = 0.491 | 13.54 | 0.01476
348.15 K, 1561 kPa, x1 = 1 | 35.81 | 0.01094
348.15 K, 1850 kPa, x1 = 1 | 44.66 | 0.01106
348.15 K, 1909 kPa, x1 = 0.491 | 26.07 | 0.01499
348.15 K, 2053 kPa, x1 = 0.661 | 33.49 | 0.01353
348.15 K, 2095 kPa, x1 = 0.313 | 25.47 | 0.01672
373.15 K, 101 kPa, x1 = 0.281 | 0.665 | 0.01773
373.15 K, 101 kPa, x1 = 0.522 | 0.95 | 0.01534
373.15 K, 101 kPa, x1 = 0.82 | 1.171 | 0.01282
373.15 K, 101 kPa, x1 = 1 | 1.235 | 0.01161
373.15 K, 301 kPa, x1 = 0.522 | 3.577 | 0.01535
373.15 K, 305 kPa, x1 = 1 | 4.748 | 0.0116
373.15 K, 312 kPa, x1 = 0.82 | 4.4 | 0.01285
373.15 K, 325 kPa, x1 = 0.281 | 3.419 | 0.01777
373.15 K, 500 kPa, x1 = 1 | 7.787 | 0.01162
373.15 K, 516 kPa, x1 = 0.82 | 7.217 | 0.01285
373.15 K, 520 kPa, x1 = 0.281 | 5.508 | 0.01777
373.15 K, 530 kPa, x1 = 0.522 | 6.584 | 0.01539
373.15 K, 1011 kPa, x1 = 0.281 | 10.64 | 0.01784
373.15 K, 1028 kPa, x1 = 1 | 16.71 | 0.01168
373.15 K, 1029 kPa, x1 = 0.522 | 12.76 | 0.0155
373.15 K, 1038 kPa, x1 = 0.82 | 15.16 | 0.01295
373.15 K, 1915 kPa, x1 = 0.281 | 20.8 | 0.01801
373.15 K, 1940 kPa, x1 = 1 | 35.33 | 0.01191
373.15 K, 1952 kPa, x1 = 0.82 | 30.93 | 0.01314
373.15 K, 2036 kPa, x1 = 0.522 | 25.83 | 0.01568
373.15 K, 2505 kPa, x1 = 1 | 51.25 | 0.01219
373.15 K, 2875 kPa, x1 = 1 | 67.49 | 0.01247
373.15 K, 2895 kPa, x1 = 0.82 | 51.12 | 0.01352
373.15 K, 3005 kPa, x1 = 0.281 | 33.02 | 0.01823
373.15 K, 3049 kPa, x1 = 1 | 74.07 | 0.01261
373.15 K, 3065 kPa, x1 = 0.522 | 40.84 | 0.01599
398.15 K, 101 kPa, x1 = 0.246 | 0.853 | 0.01917
398.15 K, 101 kPa, x1 = 0.525 | 0.885 | 0.01617
398.15 K, 101 kPa, x1 = 0.78 | 0.727 | 0.01397
398.15 K, 101 kPa, x1 = 1 | 0.948 | 0.01234
398.15 K, 300 kPa, x1 = 1 | 4.392 | 0.01237
398.15 K, 310 kPa, x1 = 0.246 | 2.938 | 0.01921
398.15 K, 315 kPa, x1 = 0.78 | 4.107 | 0.01399
398.15 K, 317 kPa, x1 = 0.525 | 3.633 | 0.01622
398.15 K, 516 kPa, x1 = 0.525 | 5.877 | 0.01623
398.15 K, 519 kPa, x1 = 0.246 | 5.15 | 0.01919
398.15 K, 531 kPa, x1 = 1 | 7.678 | 0.01239
398.15 K, 533 kPa, x1 = 0.78 | 7.077 | 0.01401
398.15 K, 992 kPa, x1 = 1 | 15.1 | 0.01244
398.15 K, 1009 kPa, x1 = 0.78 | 13.52 | 0.0141
398.15 K, 1020 kPa, x1 = 0.525 | 11.91 | 0.01629
398.15 K, 1048 kPa, x1 = 0.246 | 10.02 | 0.01926
398.15 K, 2018 kPa, x1 = 0.525 | 23.95 | 0.01651
398.15 K, 2030 kPa, x1 = 0.246 | 19.75 | 0.01943
398.15 K, 2030 kPa, x1 = 0.78 | 28.37 | 0.01433
398.15 K, 2085 kPa, x1 = 1 | 34.47 | 0.01274
398.15 K, 2973 kPa, x1 = 0.246 | 29.35 | 0.0196
398.15 K, 2985 kPa, x1 = 1 | 54.66 | 0.01317
398.15 K, 2986 kPa, x1 = 0.78 | 44.58 | 0.01465
398.15 K, 3015 kPa, x1 = 0.525 | 36.43 | 0.01675
398.15 K, 3735 kPa, x1 = 0.78 | 58.58 | 0.015
398.15 K, 3839 kPa, x1 = 0.246 | 37.95 | 0.01974
398.15 K, 3905 kPa, x1 = 0.525 | 47.93 | 0.01701
398.15 K, 3965 kPa, x1 = 1 | 87.68 | 0.0141
398.15 K, 4480 kPa, x1 = 1 | 112.3 | 0.01504
398.15 K, 4569 kPa, x1 = 0.78 | 77.25 | 0.0155
398.15 K, 4620 kPa, x1 = 1 | 122.4 | 0.01543
398.15 K, 4730 kPa, x1 = 0.525 | 59.49 | 0.01731
398.15 K, 4860 kPa, x1 = 0.246 | 48.5 | 0.01995
423.15 K, 101 kPa, x1 = 0.272 | 0.662 | 0.01978
423.15 K, 101 kPa, x1 = 0.527 | 0.694 | 0.01721
423.15 K, 101 kPa, x1 = 0.764 | 1.072 | 0.01516
423.15 K, 101 kPa, x1 = 1 | 1.009 | 0.01332
423.15 K, 310 kPa, x1 = 1 | 4.289 | 0.01333
423.15 K, 314 kPa, x1 = 0.272 | 2.901 | 0.01984
423.15 K, 316 kPa, x1 = 0.527 | 3.343 | 0.01723
423.15 K, 320 kPa, x1 = 0.764 | 4.447 | 0.01522
423.15 K, 505 kPa, x1 = 0.527 | 5.456 | 0.01726
423.15 K, 505 kPa, x1 = 1 | 6.812 | 0.01335
423.15 K, 520 kPa, x1 = 0.764 | 6.591 | 0.01524
423.15 K, 529 kPa, x1 = 0.272 | 4.699 | 0.01986
423.15 K, 985 kPa, x1 = 1 | 13.75 | 0.01342
423.15 K, 1021 kPa, x1 = 0.764 | 12.33 | 0.0153
423.15 K, 1040 kPa, x1 = 0.272 | 9.555 | 0.01994
423.15 K, 1047 kPa, x1 = 0.527 | 11.35 | 0.01734
423.15 K, 2013 kPa, x1 = 0.527 | 22.17 | 0.01753
423.15 K, 2022 kPa, x1 = 1 | 30.21 | 0.0137
423.15 K, 2030 kPa, x1 = 0.272 | 18.92 | 0.02008
423.15 K, 2060 kPa, x1 = 0.764 | 25.8 | 0.01558
423.15 K, 2926 kPa, x1 = 0.764 | 38.25 | 0.01581
423.15 K, 2955 kPa, x1 = 0.272 | 27.91 | 0.02018
423.15 K, 2995 kPa, x1 = 0.527 | 33.84 | 0.01769
423.15 K, 3004 kPa, x1 = 1 | 48.47 | 0.01413
423.15 K, 3970 kPa, x1 = 0.764 | 54.49 | 0.01621
423.15 K, 3973 kPa, x1 = 0.527 | 45.63 | 0.01796
423.15 K, 4000 kPa, x1 = 0.272 | 37.87 | 0.02038
423.15 K, 4015 kPa, x1 = 1 | 71.3 | 0.01477
423.15 K, 4495 kPa, x1 = 1 | 86.57 | 0.01521
423.15 K, 4873 kPa, x1 = 0.527 | 56.58 | 0.01822
423.15 K, 4894 kPa, x1 = 0.764 | 69.38 | 0.01664
423.15 K, 4911 kPa, x1 = 0.272 | 46.7 | 0.02057
423.15 K, 4912 kPa, x1 = 1 | 99.15 | 0.01568
